Measured values published in PubChem BioAssay AID2060510 (Molecular Pharmacology Branch, DTP, NCI, 2025).

Test system: 439559-082-T-J2-PDC spheroids viability
Assay: Anticancer human tumor 439559-082-T-J2-PDC patient-derived colon adenocarcinoma cell line growth inhibition [GQUAD]
Conditions: for IC50: curve of first compound; for viability, T/C: stronger effect = lower value
Method in brief: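 Multi-cell-type spheroids of tumor cells with HUVEC and mesenchymal stem cells, treated with drug combinations. Concentrations descend in half-log steps from near clinical Cmax, or from 10 microM where Cmax is unknown; viability read-out.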

[1] = second compound 0.0316 µM, first compound 0.0316 µM
[2] = second compound 0.0316 µM, first compound 0.316 µM
[3] = second compound 0.1 µM, first compound 0.0316 µM
[4] = second compound 0.1 µM, first compound 0.316 µM
[5] = second compound 0.316 µM, first compound 0.0316 µM
[6] = second compound 0.316 µM, first compound 0.316 µM
[7] = second compound 1 µM, first compound 0.0316 µM
[8] = second compound 1 µM, first compound 0.316 µM
[9] = second compound 3.16 µM, first compound 0.0316 µM
[10] = second compound 3.16 µM, first compound 0.316 µM
[11] = second compound 10 µM, first compound 0.0316 µM
[12] = second compound 10 µM, first compound 0.316 µM
[13] = second compound 0.0316 µM, first compound 0.1 µM
[14] = second compound 0.0316 µM, first compound 1 µM
[15] = second compound 0.0316 µM, first compound 3.16 µM
[16] = second compound 0.0316 µM, first compound 10 µM
[17] = second compound 0.1 µM, first compound 0.1 µM
[18] = second compound 0.1 µM, first compound 1 µM
[19] = second compound 0.1 µM, first compound 3.16 µM
[20] = second compound 0.1 µM, first compound 10 µM
[21] = second compound 0.316 µM, first compound 0.1 µM
[22] = second compound 0.316 µM, first compound 1 µM
[23] = second compound 0.316 µM, first compound 3.16 µM
[24] = second compound 0.316 µM, first compound 10 µM
[25] = second compound 1 µM, first compound 0.1 µM
[26] = second compound 1 µM, first compound 1 µM
[27] = second compound 1 µM, first compound 3.16 µM
[28] = second compound 1 µM, first compound 10 µM
[29] = second compound 3.16 µM, first compound 0.1 µM
[30] = second compound 3.16 µM, first compound 1 µM
[31] = second compound 3.16 µM, first compound 3.16 µM
[32] = second compound 3.16 µM, first compound 10 µM
[33] = second compound 10 µM, first compound 0.1 µM
[34] = second compound 10 µM, first compound 1 µM
[35] = second compound 10 µM, first compound 3.16 µM
[36] = second compound 10 µM, first compound 10 µM
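Note: spheroids exposed to the agents for 7 days before readout.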
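Throughout, for viability, T/C: percent of luminescence signal in DMSO vehicle wells taken as 100% viability.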

Cc1[nH]c2ccccc2c1CCNCc1ccc(/C=C/C(=O)NO)cc1 + Cc1cnc(CNC(=O)c2c(=O)c3ccc(N4CCCN(C)CC4)nc3n3c2sc2ccccc23)cn1
IC50 (second compound 0.0316 µM): > 316 nM
IC50 (second compound 0.1 µM): > 316 nM
IC50 (second compound 0.316 µM): > 316 nM
IC50 (second compound 1 µM): > 316 nM
IC50 (second compound 3.16 µM): > 316 nM
IC50 (second compound 10 µM): 205 nM
viability, T/C (second compound 0.0316 µM, first compound 0.000999 µM): 101%
viability, T/C (second compound 0.0316 µM, first compound 0.00316 µM): 92.8%
viability, T/C (second compound 0.0316 µM, first compound 0.00999 µM): 99%
viability, T/C [1]: 90.6%
viability, T/C (second compound 0.0316 µM, first compound 0.0999 µM): 81.7%
viability, T/C [2]: 63.7%
viability, T/C (second compound 0.1 µM, first compound 0.000999 µM): 104%
viability, T/C (second compound 0.1 µM, first compound 0.00316 µM): 100%
viability, T/C (second compound 0.1 µM, first compound 0.00999 µM): 87.5%
viability, T/C [3]: 93.9%
viability, T/C (second compound 0.1 µM, first compound 0.0999 µM): 85.9%
viability, T/C [4]: 59.8%
viability, T/C (second compound 0.316 µM, first compound 0.000999 µM): 92.7%
viability, T/C (second compound 0.316 µM, first compound 0.00316 µM): 85.4%
viability, T/C (second compound 0.316 µM, first compound 0.00999 µM): 89.6%
viability, T/C [5]: 76.2%
viability, T/C (second compound 0.316 µM, first compound 0.0999 µM): 80.8%
viability, T/C [6]: 65.2%
viability, T/C (second compound 1 µM, first compound 0.000999 µM): 86.8%
viability, T/C (second compound 1 µM, first compound 0.00316 µM): 79.6%
viability, T/C (second compound 1 µM, first compound 0.00999 µM): 80.4%
viability, T/C [7]: 71.8%
viability, T/C (second compound 1 µM, first compound 0.0999 µM): 83.1%
viability, T/C [8]: 55.7%
viability, T/C (second compound 3.16 µM, first compound 0.000999 µM): 73.4%
viability, T/C (second compound 3.16 µM, first compound 0.00316 µM): 70.1%
viability, T/C (second compound 3.16 µM, first compound 0.00999 µM): 81.4%
viability, T/C [9]: 74.1%
viability, T/C (second compound 3.16 µM, first compound 0.0999 µM): 73.7%
viability, T/C [10]: 53.9%
viability, T/C (second compound 10 µM, first compound 0.000999 µM): 70%
viability, T/C (second compound 10 µM, first compound 0.00316 µM): 68.7%
viability, T/C (second compound 10 µM, first compound 0.00999 µM): 64.2%
viability, T/C [11]: 67%
viability, T/C (second compound 10 µM, first compound 0.0999 µM): 67.5%
viability, T/C [12]: 39.5%

Nc1ccn(C2OC(CO)C(O)C2(F)F)c(=O)n1 (stereo unspecified) + Cc1cnc(CNC(=O)c2c(=O)c3ccc(N4CCCN(C)CC4)nc3n3c2sc2ccccc23)cn1
IC50 (second compound 0.0316 µM): 234 nM
IC50 (second compound 0.1 µM): 213 nM
IC50 (second compound 0.316 µM): 231 nM
IC50 (second compound 1 µM): 174 nM
IC50 (second compound 3.16 µM): 171 nM
IC50 (second compound 10 µM): 153 nM
viability, T/C [1]: 87.8%
viability, T/C [13]: 65.9%
viability, T/C [2]: 41.4%
viability, T/C [14]: 35.3%
viability, T/C [15]: 27.3%
viability, T/C [16]: 20.8%
viability, T/C [3]: 81.4%
viability, T/C [17]: 62.3%
viability, T/C [4]: 43.4%
viability, T/C [18]: 29.8%
viability, T/C [19]: 27.8%
viability, T/C [20]: 18.4%
viability, T/C [5]: 84.2%
viability, T/C [21]: 65.4%
viability, T/C [6]: 42.9%
viability, T/C [22]: 31.9%
viability, T/C [23]: 25.4%
viability, T/C [24]: 19.2%
viability, T/C [7]: 74.3%
viability, T/C [25]: 61.7%
viability, T/C [8]: 37.4%
viability, T/C [26]: 28.8%
viability, T/C [27]: 26%
viability, T/C [28]: 27.3%
viability, T/C [9]: 66.9%
viability, T/C [29]: 56.1%
viability, T/C [10]: 43.5%
viability, T/C [30]: 28.3%
viability, T/C [31]: 25.7%
viability, T/C [32]: 19.6%
viability, T/C [11]: 67.2%
viability, T/C [33]: 56.3%
viability, T/C [12]: 39.3%
viability, T/C [34]: 29.8%
viability, T/C [35]: 24.6%
viability, T/C [36]: 22.6%

O=C(NO)c1cnc(N2CCN(S(=O)(=O)c3ccc4ccccc4c3)CC2)nc1 + Cc1cnc(CNC(=O)c2c(=O)c3ccc(N4CCCN(C)CC4)nc3n3c2sc2ccccc23)cn1
IC50 (second compound 0.0316 µM): 546 nM
IC50 (second compound 0.1 µM): 447 nM
IC50 (second compound 0.316 µM): 450 nM
IC50 (second compound 1 µM): 353 nM
IC50 (second compound 3.16 µM): 380 nM
IC50 (second compound 10 µM): 263 nM
viability, T/C [1]: 90.2%
viability, T/C [13]: 88.9%
viability, T/C [2]: 68.9%
viability, T/C [14]: 29.1%
viability, T/C [15]: 0.23%
viability, T/C [16]: 0.25%
viability, T/C [3]: 93.5%
viability, T/C [17]: 85.8%
viability, T/C [4]: 67.2%
viability, T/C [18]: 10.9%
viability, T/C [19]: 0.24%
viability, T/C [20]: 0.21%
viability, T/C [5]: 98.1%
viability, T/C [21]: 83.4%
viability, T/C [6]: 66.7%
viability, T/C [22]: 15.7%
viability, T/C [23]: 0.18%
viability, T/C [24]: 0.24%
viability, T/C [7]: 77.9%
viability, T/C [25]: 73.2%
viability, T/C [8]: 53.9%
viability, T/C [26]: 15.3%
viability, T/C [27]: 0.16%
viability, T/C [28]: 0.14%
viability, T/C [9]: 72%
viability, T/C [29]: 64.5%
viability, T/C [10]: 58.1%
viability, T/C [30]: 8.79%
viability, T/C [31]: 0.12%
viability, T/C [32]: 0.18%
viability, T/C [11]: 62.7%
viability, T/C [33]: 62.8%
viability, T/C [12]: 47.6%
viability, T/C [34]: 0.23%
viability, T/C [35]: 0.17%
viability, T/C [36]: 0.18%
